Test results as given in patent US11866450B2, “Modulators of Cystic Fibrosis Transmembrane Conductance regulator, pharmaceutical compositions, methods of treatment, and process for making the modulators” (priority 2018, dated 2024).
Where two headings read alike, the source gives them in different places.

What was measured:
[1] = target: CFTR-mediated chloride transport (Homo sapiens, UniProt P13569); assay type: cell-based; conditions: enteroid cells incubated with test compound 18-24 hours, acute 10 μM forskolin and 300 nM Compound III; for Max. Activity: % of chloride transport with 3 μM Compound A, 3 μM Compound II and 300 nM acute Compound III triple combination control
Outline: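 Human intestinal enteroid cells incubated with compound 18–24 h at 37° C., then membrane potential dye (FLIPR) read 15 min after chloride-free stimulation with 10 μM forskolin, 100 μM IBMX and 300 nM Compound III. AUC expressed as % of triple-combination control (3 μM Compound A, 3 μM Compound II, 300 nM Compound III).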

[2] = snar bond

Chain of CFTR-mediated chloride transport (P13569 whole entry, looked up): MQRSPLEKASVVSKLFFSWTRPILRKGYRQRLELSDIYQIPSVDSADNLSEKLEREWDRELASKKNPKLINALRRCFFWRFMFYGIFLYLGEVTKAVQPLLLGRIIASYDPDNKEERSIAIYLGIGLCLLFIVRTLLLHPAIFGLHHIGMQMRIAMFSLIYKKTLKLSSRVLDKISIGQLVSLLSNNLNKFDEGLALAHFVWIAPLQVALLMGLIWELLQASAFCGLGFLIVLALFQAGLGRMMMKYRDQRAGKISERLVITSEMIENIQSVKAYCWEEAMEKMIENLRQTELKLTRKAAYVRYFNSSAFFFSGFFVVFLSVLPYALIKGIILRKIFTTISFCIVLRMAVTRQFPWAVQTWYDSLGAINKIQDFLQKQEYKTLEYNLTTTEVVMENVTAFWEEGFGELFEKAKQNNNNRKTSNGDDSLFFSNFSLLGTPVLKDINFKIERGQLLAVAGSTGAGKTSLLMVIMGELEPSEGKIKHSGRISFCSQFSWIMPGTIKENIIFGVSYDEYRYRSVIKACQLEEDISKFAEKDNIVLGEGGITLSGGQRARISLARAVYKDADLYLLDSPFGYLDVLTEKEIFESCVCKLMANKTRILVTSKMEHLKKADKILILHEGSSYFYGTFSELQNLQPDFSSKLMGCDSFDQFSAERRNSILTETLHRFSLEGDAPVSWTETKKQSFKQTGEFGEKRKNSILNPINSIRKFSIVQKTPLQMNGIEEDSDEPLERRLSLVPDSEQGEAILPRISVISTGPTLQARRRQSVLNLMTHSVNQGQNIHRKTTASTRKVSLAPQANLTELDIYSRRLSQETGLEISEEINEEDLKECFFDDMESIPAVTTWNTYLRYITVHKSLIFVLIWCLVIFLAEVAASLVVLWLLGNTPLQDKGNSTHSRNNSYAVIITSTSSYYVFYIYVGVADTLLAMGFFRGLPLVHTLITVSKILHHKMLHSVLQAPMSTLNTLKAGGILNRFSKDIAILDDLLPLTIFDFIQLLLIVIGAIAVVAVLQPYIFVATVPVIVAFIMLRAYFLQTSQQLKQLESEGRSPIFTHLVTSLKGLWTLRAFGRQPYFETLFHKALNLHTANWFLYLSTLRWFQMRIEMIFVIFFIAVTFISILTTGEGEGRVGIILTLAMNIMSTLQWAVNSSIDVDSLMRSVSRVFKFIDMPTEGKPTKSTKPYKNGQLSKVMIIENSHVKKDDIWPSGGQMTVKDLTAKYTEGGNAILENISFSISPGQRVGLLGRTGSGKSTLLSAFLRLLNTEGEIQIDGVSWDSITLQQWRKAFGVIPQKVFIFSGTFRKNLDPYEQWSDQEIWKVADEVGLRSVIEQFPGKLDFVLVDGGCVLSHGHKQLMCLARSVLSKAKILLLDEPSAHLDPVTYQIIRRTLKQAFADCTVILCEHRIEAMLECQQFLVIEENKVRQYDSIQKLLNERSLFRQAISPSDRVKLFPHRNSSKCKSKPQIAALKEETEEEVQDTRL

| SMILES | EC50 [1] [nM] | Max. Activity [1] | other results |
| --- | --- | --- | --- |
| CN1CCCC2CN(c3nc(-n4ccc(OCCC5(C(F)(F)F)CC5)n4)ccc3C(=O)NS(=O)(=O)c3ccc1nc3)C(C)(C)C2 (stereo not drawn) [Compound 140, 12,12,18-Trimethyl-8-(3-{2-[1-(trifluoromethyl)cyclopropyl]ethoxy}-1H-pyrazol-1-yl)-2λ^6-thia-3,9,11,18,20-pentaazatetracyclo[17.2.2.111,14.05,10]tetracosa-1(22),5,7,9,19(23),20-hexaene-2,2,4-trione] | < 1000 | ++ (++ is 30-60%) | ring closure, isolated yield ([2]; from CN(CCCC1CNC(C)(C)C1)c1ccc(S(=O)(=O)NC(=O)c2ccc(-n3ccc(OCCC4(C(F)(F)F)CC4)n3)nc2Cl)cn1, 16-membered ring, K2CO3/CsF, DMSO, 10.2 mM, 200.0 °C, 1.5 h): 12% |
| CC1(C)C[C@@H]2CCCNc3cccc(n3)S(=O)(=O)NC(=O)c3ccc(-n4ccc(OCCC5C6(CC6)C56CC6)n4)nc3N1C2 [Compound 195, (14S)-8-[3-(2-{Dispiro[2.0.2.1]heptan-7-yl}ethoxy)-1H-pyrazol-1-yl]-12,12-dimethyl-2λ^6-thia-3,9,11,18,23-pentaazatetracyclo[17.3.1.111,14.05,10]tetracosa-1(22),5,7,9,19(23),20-hexaene-2,2,4-trione] | < 1000 | +++ (+++ is >60%) | ring closure, isolated yield ([2]; from CC1(C)C[C@H](CCCNc2cccc(S(=O)(=O)NC(=O)c3ccc(-n4ccc(OCCC5C6(CC6)C56CC6)n4)nc3Cl)n2)CN1, 15-membered ring, K2CO3, NMP, 55.8 mM, 150.0 °C, 22.0 h): 68% |
| CC1(C)CC2CCCn3ccc(n3)S(=O)(=O)NC(=O)c3ccc(-n4ccc(OCCC5C6(CC6)C56CC6)n4)nc3N1C2 (stereo not drawn) [Compound 176, 4-[3-(2-{dispiro[2.0.2.1]heptan-7-yl}ethoxy)-1H-pyrazol-1-yl]-20,20-dimethyl-10λ^6-thia-1,3,9,14,22-pentaazatetracyclo[16.2.1.111,14.02,7]docosa-2,4,6,11(22),12-pentaene-8,10,10-trione] | < 1000 | +++ (+++ is >60%) | ring closure, isolated yield ([2]; from CC1(C)CC(CCCn2ccc(S(=O)(=O)NC(=O)c3ccc(-n4ccc(OCCC5C6(CC6)C56CC6)n4)nc3Cl)n2)CN1, 14-membered ring, K2CO3/CsF/3A MS, DMSO, 53.1 mM, 155.0 °C): 40% |
| CC1(C)CC2CCCOc3ccc(cc3)S(=O)(=O)NC(=O)c3ccc(-n4ccc(OCCC5(C(F)(F)F)CC5)n4)nc3N1C2 (racemic) [Compound 88, 12,12-Dimethyl-8-(3-{2-[1-(trifluoromethyl)cyclopropyl]ethoxy}-1H-pyrazol-1-yl)-18-oxa-2λ^6-thia-3,9,11-triazatetracyclo[17.2.2.111,14.05,10]tetracosa-1(21),5,7,9,19,22-hexaene-2,2,4-trione] | < 1000 | ++ (++ is 30-60%) | ring closure, isolated yield ([2]; from CC1(C)CC(CCCOc2ccc(S(=O)(=O)NC(=O)c3ccc(-n4ccc(OCCC5(C(F)(F)F)CC5)n4)nc3Cl)cc2)CN1, 16-membered ring, K2CO3/CsF/3A MS, DMSO, 37.3 mM, 35.0 h): 4% |
| CC1(C)CC2CCCCCc3ccc(cn3)S(=O)(=O)NC(=O)c3ccc(-n4ccc(OCCC5(C(F)(F)F)CC5)n4)nc3N1C2 (stereo not drawn) [Compound 142, 12,12-Dimethyl-8-(3-{2-[1-(trifluoromethyl)cyclopropyl]ethoxy}-1H-pyrazol-1-yl)-2λ^6-thia-3,9,11,21-tetraazatetracyclo[18.2.2.111,14.05,10]pentacosa-1(23),5,7,9,20(24),21-hexaene-2,2,4-trione] | < 1000 | + (+ is <30%) | ring closure, isolated yield ([2]; from 2-chloro-N-[[6-[5-(5,5-dimethylpyrrolidin-3-yl)pentyl]-3-pyridyl]sulfonyl]-6-[3-[2-[1-(trifluoromethyl)cyclopropyl]ethoxy]pyrazol-1-yl]pyridine-3-carboxamide (dihydrochloride salt), 17-membered ring, K2CO3/CsF, DMSO, 63.0 mM, 165.0 °C): 36% |
| CC1(C)CC2CCCNc3cccc(n3)S(=O)(=O)NC(=O)c3ccc(-n4ccc(OCCC5(C(F)(F)F)CC5)n4)nc3N1C2 (racemic) [Compound 12, 12,12-dimethyl-8-(3-{2-[1-(trifluoromethyl)cyclopropyl]ethoxy}-1H-pyrazol-1-yl)-2λ^6-thia-3,9,11,18,23-pentaazatetracyclo[17.3.1.111,14.05,10]tetracosa-1(23),5(10),6,8,19,21-hexaene-2,2,4-trione] | < 1000 | +++ (+++ is >60%) | ring closure, isolated yield ([2]; from 2-chloro-N-[[6-[3-(5,5-dimethylpyrrolidin-3-yl)propylamino]-2-pyridyl]sulfonyl]-6-[3-[2-[1-(trifluoromethyl)cyclopropyl]ethoxy]pyrazol-1-yl]pyridine-3-carboxamide (dihydrochloride salt), 15-membered ring, K2CO3/CsF, NMP, 144.7 mM, 150.0 °C): 67% |
| CC1(C)CC2CCCCOc3ccc(cn3)S(=O)(=O)NC(=O)c3ccc(-n4ccc(OCCC5(C(F)(F)F)CC5)n4)nc3N1C2 (stereo not drawn) [Compound 94, 12,12-dimethyl-8-(3-{2-[1-(trifluoromethyl)cyclopropyl]ethoxy}-1H-pyrazol-1-yl)-19-oxa-2λ^6-thia-3,9,11,21-tetraazatetracyclo[18.2.2.111,14.05,10]pentacosa-1(23),5,7,9,20(24),21-hexaene-2,2,4-trione] | > 3000 | + (+ is <30%) | ring closure, isolated yield ([2]; from CC(C)(C)OC(=O)N1CC(CCCCOc2ccc(S(=O)(=O)NC(=O)c3ccc(-n4ccc(OCCC5(C(F)(F)F)CC5)n4)nc3Cl)cn2)CC1(C)C, 17-membered ring, HCl (Boc off), K2CO3/CsF/3A MS, DMSO, 59.4 mM, 150.0 °C, 2 steps): 26% |
| CC1(C)C2CCNc3cccc(n3)S(=O)(=O)NC(=O)c3ccc(-n4ccc(OCCC5(C(F)(F)F)CC5)n4)nc3N1CC2 (stereo not drawn) [Compound 236, 23,23-Dimethyl-11-(3-{2-[1-(trifluoromethyl)cyclopropyl]ethoxy}-1H-pyrazol-1-yl)-17λ^6-thia-2,8,10,16,22-pentaazatetracyclo[16.3.1.15,8.09,14]tricosa-1(22),9,11,13,18,20-hexaene-15,17,17-trione] | > 3000 | + (+ is <30%) | ring closure, isolated yield ([2]; from CC1(C)NCCC1CCNc1cccc(S(=O)(=O)NC(=O)c2ccc(-n3ccc(OCCC4(C(F)(F)F)CC4)n3)nc2Cl)n1, 14-membered ring, K2CO3/3A MS, DMSO, 25.1 mM, 180.0 °C, 18.0 h): 2% |
| CC1(C)CC2CCCCNc3cccc(n3)S(=O)(=O)NC(=O)c3ccc(-n4ccc(OCCC5(C(F)(F)F)CC5)n4)nc3N1C2 (racemic) [Compound 28, 12,12-dimethyl-8-(3-{2-[1-(trifluoromethyl)cyclopropyl]ethoxy}-1H-pyrazol-1-yl)-2λ^6-thia-3,9,11,19,24-pentaazatetracyclo[18.3.1.111,14.05,10]pentacosa-1(23),5,7,9,20(24),21-hexaene-2,2,4-trione] | < 1000 | ++ (++ is 30-60%) | ring closure, isolated yield ([2]; from CC1(C)CC(CCCCNc2cccc(S(=O)(=O)NC(=O)c3ccc(-n4ccc(OCCC5(C(F)(F)F)CC5)n4)nc3Cl)n2)CN1, 16-membered ring, K2CO3/CsF/3A MS, DMSO, 62.4 mM, 150.0 °C, 18.0 h, 2 steps): 60% |
| CC1(C)CC2CCCCn3ccc(n3)S(=O)(=O)NC(=O)c3ccc(-n4ccc(OCCC5(C(F)(F)F)CC5)n4)nc3N1C2 (stereo not drawn) [Compound 39, 21,21-dimethyl-4-(3-{2-[1-(trifluoromethyl)cyclopropyl]ethoxy}-1H-pyrazol-1-yl)-10λ^6-thia-1,3,9,14,23-pentaazatetracyclo[17.2.1.111,14.02,7]tricosa-2,4,6,11(23),12-pentaene-8,10,10-trione] | 1000 to 3000 | +++ (+++ is >60%) | ring closure, isolated yield ([2]; from CC(C)(C)OC(=O)N1CC(CCCCn2ccc(S(=O)(=O)NC(=O)c3ccc(-n4ccc(OCCC5(C(F)(F)F)CC5)n4)nc3Cl)n2)CC1(C)C, 15-membered ring, HCl (Boc off), K2CO3/CsF/3A MS, DMSO, 63.7 mM, 150.0 °C, 2 steps): 37% |
| CC1(C)CC2CCCCc3ccc(cc3)S(=O)(=O)NC(=O)c3ccc(-n4ccc(OCCC5(C(F)(F)F)CC5)n4)nc3N1C2 (stereo not drawn) [Compound 52, 12,12-dimethyl-8-(3-{2-[1-(trifluoromethyl)cyclopropyl]ethoxy}-1H-pyrazol-1-yl)-2λ^6-thia-3,9,11-triazatetracyclo[17.2.2.111,14.05,10]tetracosa-1(21),5,7,9,19,22-hexaene-2,2,4-trione] | < 1000 | ++ (++ is 30-60%) | ring closure, isolated yield ([2]; from CC1(C)CC(CCCCc2ccc(S(=O)(=O)NC(=O)c3ccc(-n4ccc(OCCC5(C(F)(F)F)CC5)n4)nc3Cl)cc2)CN1, 16-membered ring, K2CO3/CsF/3A MS, DMSO, 37.4 mM, 155.0 °C): 26% |
| CC1(C)C[C@@H]2CCCNc3cccc(n3)S(=O)(=O)NC(=O)c3ccc(-n4ccc(OCCC(O)C5(C(F)(F)F)CC5)n4)nc3N1C2 (stereo partly drawn) [Compound 295, (14S)-8-(3-{3-hydroxy-3-[1-(trifluoromethyl)cyclopropyl]propoxy}-1H-pyrazol-1-yl)-12,12-dimethyl-2λ^6-thia-3,9,11,18,23-pentaazatetracyclo[17.3.1.111,14.05,10]tetracosa-1(22),5,7,9,19(23),20-hexaene-2,2,4-trione] | < 1000 | ++ (++ is 30-60%) | ring closure, isolated yield ([2]; from CC(C)(C)OC(=O)N1C[C@@H](CCCNc2cccc(S(=O)(=O)NC(=O)c3ccc(-n4ccc(OCCC(O[Si](C)(C)C(C)(C)C)C5(C(F)(F)F)CC5)n4)nc3Cl)n2)CC1(C)C, 15-membered ring, K2CO3/CsF/3A MS, DMSO, 41.7 mM, 150.0 °C, 2 steps): 46% |
| CC1(C)CC2CCCCn3cc(cn3)S(=O)(=O)NC(=O)c3ccc(-n4ccc(OCCC5(C(F)(F)F)CC5)n4)nc3N1C2 (stereo not drawn) [Compound 122, 21,21-Dimethyl-4-(3-{2-[1-(trifluoromethyl)cyclopropyl]ethoxy}-1H-pyrazol-1-yl)-10λ^6-thia-1,3,9,13,14-pentaazatetracyclo[17.2.1.111,14.02,7]tricosa-2,4,6,11(23),12-pentaene-8,10,10-trione] | < 1000 | ++ (++ is 30-60%) | ring closure, isolated yield ([2]; from CC(C)(C)OC(=O)N1CC(CCCCn2cc(S(=O)(=O)NC(=O)c3ccc(-n4ccc(OCCC5(C(F)(F)F)CC5)n4)nc3Cl)cn2)CC1(C)C, 15-membered ring, K2CO3/CsF/3A MS, DMSO, 41.5 mM, 155.0 °C, 2 steps): 50% |
